In US10874636B2, “Application of substituted cinnamamide derivatives in preparation of anti-anxiety medication” (TASLY PHARMACEUTICAL GROUP CO., LTD., priority 2016, dated 2020):

Key:
[1] = test system: mice; assay: Elevated plus-maze test for mice; assay type: in vivo, ICR male mice; conditions: 10 mg/kg intragastric for 1 week; in words
Protocol: 247 ICR male mice aged 6-8 weeks with the weight of 18-22 g were taken and fed adaptively for 1 week. Then, these mice were evenly divided, at random, into 19 groups based on their weights. Intragastric administration was conducted once a day according to the drugs and dosages listed in Table 1, which lasted for 7 consecutive days. 20 minutes after administration on the 7th day, the elevated plus-maze test was conducted.
The elevated plus-maze (EPM) for mice were composed of two opposite open arms (50 cm×10 cm) and two opposite enclosed arms (50 cm×10 cm×40 cm), wherein upper portions of the enclosed arms were not capped, an open portion of 10 cm×10 cm was located in the middle of the maze, and the maze was 50 cm away from the ground. The test was conducted in a quite environment at a time period ranging from 13:00 to 18:00.
The open-arms entries (OE) and enclosed-arms entries, as well as the residence time in two arms, of the mice, within 5 minutes, were recorded respectively, and the percentage of the open-arms entries (OE %) and that of the open-arms time (OT %) for each group of mice with respect to the total entries into the two arms and the total residence time in the two arms therein were calculated respectively.
Analysis was conducted using SPSS 11.5 software, and data were represented by x±S, the significance of differences between groups was compared using the analysis of variance, differences were significant while P was less than 0.05.

[2] = test system: rats; assay: Drinking conflict experiment for rats (Vogel test); assay type: in vivo, SD male rats; conditions: for Effect on water licks of the rats during the punished session compared with the solvent control groups: 5 mg/kg intragastric for 10 days, in words; for Water licks of rats during punished session: 5 mg/kg intragastric once a day for 10 days, test half an hour after final administration, 3 minutes, 0.3 mA, x±S
Protocol: 230 SD male rats with the weight of 180-220 g were taken and fed adaptively for 1 week. Then, these rats were divided, at random, into 19 groups based on their weights, 12-13 rats in each group. Intragastric administration was conducted one a day according to the drugs and dosages listed in Table 2, which lasted for 10 consecutive days. Water deprivation 48 hours before the final administration, and non-punitive drinking training was conducted on the 9th day; on the 10th day, half an hour after the final intragastric administration of all the groups, the punitive experimental test was conducted.
On the first stage (non-punitive drinking training): after water deprivation for 24 hours, the rats were placed in operation boxes individually to explore thoroughly, until they found bottle mouths and began to lick water, water licks of the rats within 3 minutes under the conditions of no electric shock (the condition was set as follows: the strength of electric shock was 0 mA) were automatically recorded by counters, and rats whose water licks were less than 300 were eliminated. On the second stage (punitive experiment): the above rats which were not eliminated were placed in the operation boxes after continuing the water deprivation for 24 hours (48 hours in total). The rats could find the bottle mouths rapidly and begin to lick water, the instruments began to time automatically and imparted one electric shock (the ratio of licks to the number of electric shocks was 20:1) while the water licks reached to 20, wherein the strength of electric shocks was 0.3 mA, lasting for 2 seconds, but these rats may control the length of the time for which they were electrically shocked by keeping away from the bottle mouths. Water licks of the rats during the punished session (3 minutes) were recorded.
Observational indexes of the Vogel drinking conflict model: water licks of the rats during the punished session.

## CN1CCN(C(=O)/C=C/CCc2cc3c(c(C(F)(F)F)c2)OCO3)CC1.Cl [II-13, (E)-N-(4-methylpiperazinyl)-5-(5′-trifluoromethyl-3′,4′-methylenedioxyphenyl)-1-pentene amide hydrochloride]
[1]
  Effect on open-arms entries of the mice compared with the solvent control groups: increase the open-arms entries of the mice
  Effect on open-arms time of the mice compared with the solvent control groups: prolong their open-arms time
[2]
  Effect on water licks of the rats during the punished session compared with the solvent control groups: increase water licks of the rats during the punished session
  Water licks of rats during punished session: 393.44 ± 48.99

## CC(C)CNC(=O)c1cc2c(c(C(F)(F)F)c1)OCO2 [II-12, 5-trifluoromethyl-3′,4′-methylenedioxy benzoic acid isobutylamide]
[1]
  Effect on open-arms entries of the mice compared with the solvent control groups: increase the open-arms entries of the mice
  Effect on open-arms time of the mice compared with the solvent control groups: prolong their open-arms time
[2]
  Effect on water licks of the rats during the punished session compared with the solvent control groups: increase water licks of the rats during the punished session
  Water licks of rats during punished session: 402.67 ± 50.35

## CC(C)CNC(=O)/C=C/c1cc(Cl)c2c(c1)OCO2 [II-4, 5′-chlorine-3′,4′-methylenedioxy cinnamic acid isobutylamide]
[1]
  Effect on open-arms entries of the mice compared with the solvent control groups: increase the open-arms entries of the mice
  Effect on open-arms time of the mice compared with the solvent control groups: prolong their open-arms time
[2]
  Effect on water licks of the rats during the punished session compared with the solvent control groups: increase water licks of the rats during the punished session
  Water licks of rats during punished session: 477.22 ± 66.66

## CC(C)CNC(=O)/C=C/c1cc(O)c(O)c(C(F)(F)F)c1 [III-7, 3′,4′-dihydroxyl-5′-trifluoromethyl-cinnamic acid isobutylamide]
[1]
  Effect on open-arms entries of the mice compared with the solvent control groups: increase the open-arms entries of the mice
  Effect on open-arms time of the mice compared with the solvent control groups: prolong their open-arms time
[2]
  Effect on water licks of the rats during the punished session compared with the solvent control groups: increase water licks of the rats during the punished session
  Water licks of rats during punished session: 378.33 ± 54.97

## CC(C)CNC(=O)c1cc(O)c(O)c(C(F)(F)F)c1 [III-11, 3,4-dihydroxyl-5-trifluoromethyl-benzoic acid isobutylamide]
[1]
  Effect on open-arms entries of the mice compared with the solvent control groups: increase the open-arms entries of the mice
  Effect on open-arms time of the mice compared with the solvent control groups: prolong their open-arms time
[2]
  Effect on water licks of the rats during the punished session compared with the solvent control groups: increase water licks of the rats during the punished session
  Water licks of rats during punished session: 361.13 ± 38.38

## CC(C)CNC(=O)/C=C/c1cc2c(c(C(F)(F)F)c1)OCO2 [II-5, 5′-trifluoromethyl-3′,4′-methylenedioxy cinnamic acid isobutylamide]
[1]
  Effect on open-arms entries of the mice compared with the solvent control groups: increase the open-arms entries of the mice
  Effect on open-arms time of the mice compared with the solvent control groups: prolong their open-arms time
[2]
  Effect on water licks of the rats during the punished session compared with the solvent control groups: increase water licks of the rats during the punished session
  Water licks of rats during punished session: 469.11 ± 50.51

## CC(C)CNC(=O)/C=C/C=C/CCc1cc2c(c(C(F)(F)F)c1)OCO2 [II-14, (2E, 4E)-N-isobutyl-7-(5′-trifluoromethyl-3′,4′-methylenedioxyphenyl)-2,4-heptadiene amide]
[1]
  Effect on open-arms entries of the mice compared with the solvent control groups: increase the open-arms entries of the mice
  Effect on open-arms time of the mice compared with the solvent control groups: prolong their open-arms time
[2]
  Effect on water licks of the rats during the punished session compared with the solvent control groups: increase water licks of the rats during the punished session
  Water licks of rats during punished session: 368.00 ± 47.38

## CN1CCN(C(=O)/C=C/C=C/CCc2cc3c(c(C(F)(F)F)c2)OCO3)CC1.Cl [II-15, (2E,4E)-N-(4-methylpiperazinyl)-7-(5′-trifluoromethyl-3′,4′-methylenedioxyphenyl)-2,4-heptadiene amide hydrochloride]
[1]
  Effect on open-arms entries of the mice compared with the solvent control groups: increase the open-arms entries of the mice
  Effect on open-arms time of the mice compared with the solvent control groups: prolong their open-arms time
[2]
  Effect on water licks of the rats during the punished session compared with the solvent control groups: increase water licks of the rats during the punished session
  Water licks of rats during punished session: 412.25 ± 42.90

## N-methyl-(5′-trifluoromethyl-3′,4′-methylenedioxy)-amphetamine hydrochloride [II-16]
[1]
  Effect on open-arms entries of the mice compared with the solvent control groups: increase the open-arms entries of the mice
  Effect on open-arms time of the mice compared with the solvent control groups: prolong their open-arms time
[2]
  Effect on water licks of the rats during the punished session compared with the solvent control groups: increase water licks of the rats during the punished session
  Water licks of rats during punished session: 406.56 ± 65.38

## COc1cc(/C=C/C(=O)NCC(C)C)cc(C(F)(F)F)c1OC [III-2, 3′,4′-dimethoxy-5′-trifluoromethyl-cinnamic acid isobutylamide]
[1]
  Effect on open-arms entries of the mice compared with the solvent control groups: increase the open-arms entries of the mice
  Effect on open-arms time of the mice compared with the solvent control groups: prolong their open-arms time
[2]
  Effect on water licks of the rats during the punished session compared with the solvent control groups: increase water licks of the rats during the punished session
  Water licks of rats during punished session: 368.00 ± 39.59

## COc1c(O)cc(/C=C/C(=O)NCC(C)C)cc1C(F)(F)F [III-4, 3′-hydroxyl-4′-methoxy-5′-trifluoromethyl-cinnamic acid isobutylamide]
[1]
  Effect on open-arms entries of the mice compared with the solvent control groups: increase the open-arms entries of the mice
  Effect on open-arms time of the mice compared with the solvent control groups: prolong their open-arms time
[2]
  Effect on water licks of the rats during the punished session compared with the solvent control groups: increase water licks of the rats during the punished session
  Water licks of rats during punished session: 394.22 ± 50.29

## O=C(/C=C/c1cc2c(c(C(F)(F)F)c1)OCO2)N1CCCCC1 [II-10, 5′-trifluoromethyl-3′,4′-methylenedioxy cinnamic acid piperidinylamide]
[1]
  Effect on open-arms entries of the mice compared with the solvent control groups: increase the open-arms entries of the mice
  Effect on open-arms time of the mice compared with the solvent control groups: prolong their open-arms time
[2]
  Effect on water licks of the rats during the punished session compared with the solvent control groups: increase water licks of the rats during the punished session
  Water licks of rats during punished session: 459.75 ± 59.23

## COc1cc(/C=C/C=C/C(=O)NCC(C)C)cc(C(F)(F)F)c1OC [III-13, 5-(5′-trifluoromethyl-3′,4′-dimethoxyphenyl) pentadienoic acid isobutylamide]
[1]
  Effect on open-arms entries of the mice compared with the solvent control groups: increase the open-arms entries of the mice
  Effect on open-arms time of the mice compared with the solvent control groups: prolong their open-arms time
[2]
  Effect on water licks of the rats during the punished session compared with the solvent control groups: increase water licks of the rats during the punished session
  Water licks of rats during punished session: 375.67 ± 58.13

## CC(C)CNC(=O)CCc1cc2c(c(C(F)(F)F)c1)OCO2 [II-11, 3-(5′-trifluoromethyl-3′,4′-methylenedioxyphenyl)-propionic acid isobutylamide]
[1]
  Effect on open-arms entries of the mice compared with the solvent control groups: increase the open-arms entries of the mice
  Effect on open-arms time of the mice compared with the solvent control groups: prolong their open-arms time
[2]
  Effect on water licks of the rats during the punished session compared with the solvent control groups: increase water licks of the rats during the punished session
  Water licks of rats during punished session: 426.25 ± 37.29
